Results as given in patent US11046716B2, “Beta-lactamase inhibitors” (priority 2015, dated 2021).

Assays:
[1] = system: K. pneumoniae expressing the Class A carbapenemase KPC-2; experiment: Broth microdilution MIC assay with meropenem, K. pneumoniae KPC-2; assay type: cell-based; conditions: Fixed Mero (meropenem) 4 μg/mL; K. p. 156319 KPC-3
Outline: (§1)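 In cation-adjusted Mueller Hinton broth, bacteria pre-grown 3-5 hours were exposed to test compound (2-fold, 16–0.125 μg/mL) plus a static 4 μg/ml β-lactam. A panel of control β-lactams was run alongside, and the compound MIC was judged by eye following 16-20 hours at 37° C.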

OXA-48 = OXA-48 (UniProt Q6XEC0); experiment: β-lactamase enzyme inhibition assay, Class D oxacillinase; assay type: biochemical; conditions: read-out: OXA-48
[2] = system: K. pneumoniae producing the Class D carbapenemase OXA-48; experiment: Broth microdilution MIC assay with meropenem, K. pneumoniae OXA-48; assay type: cell-based; conditions: Fixed Mero (meropenem) 4 μg/mL; K. p. 11978 OXA-48
Outline: as §1

VIM-2 = biological target: T1, VIM-2 (Escherichia coli, UniProt Q5U7L7); experiment: β-lactamase enzyme inhibition assay, VIM-2 (nitrocefin substrate); assay type: biochemical; conditions: Class B; nitrocefin substrate, 486 nm; read-out: VIM-2
T1 construct: made in house; host or cells: E. coli BL21(DE3)
Outline: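 Metallo-β-lactamase VIM-2 activity was tracked spectrophotometrically at 486 nm with 100 μM nitrocefin over 10 min, following 15 min preincubation with compound at 37 °C; inhibition was calculated per concentration.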

KPC-2 = biological target: T2, KPC-2 (Klebsiella pneumoniae, UniProt Q9F663); experiment: β-lactamase enzyme inhibition assay, KPC-2 (imipenem substrate); assay type: biochemical; conditions: Class A; imipenem substrate, 300 nm; read-out: KPC-2
T2 construct: made in house; host or cells: E. coli BL21(DE3)
T2 sequence (Q9F663 25-293, looked up): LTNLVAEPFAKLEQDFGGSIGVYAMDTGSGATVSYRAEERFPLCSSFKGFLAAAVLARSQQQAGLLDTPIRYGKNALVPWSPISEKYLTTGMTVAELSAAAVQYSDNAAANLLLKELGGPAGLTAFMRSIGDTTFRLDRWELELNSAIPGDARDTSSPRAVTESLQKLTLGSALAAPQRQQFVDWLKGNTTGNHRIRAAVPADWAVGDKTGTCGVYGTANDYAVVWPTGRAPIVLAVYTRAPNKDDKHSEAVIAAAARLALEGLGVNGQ
Outline: (§2)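 Compounds are mixed with purified, untagged recombinant β-lactamase and held 15 min at 37 °C. Substrate is then added: nitrocefin (100 μM final) for OXA-1, imipenem for KPC-2, cefotaxime for SHV-5. Absorbance is followed immediately, and percent inhibition per concentration gives the IC50.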

[3] = system: P. aeruginosa expressing the Class B carbapenemase VIM-2; experiment: Broth microdilution MIC assay with meropenem, P. aeruginosa VIM-2; assay type: cell-based; conditions: Fixed Mero (meropenem) 4 μg/mL; P. aerug. 2775 VIM-2
Outline: as §1

AmpC = biological target: T3, AmpC (Enterobacter cloacae, UniProt P05364); experiment: β-lactamase enzyme inhibition assay, p99 AmpC (nitrocefin substrate); assay type: biochemical
T3 construct: made in house; host or cells: E. coli BL21(DE3)
T3 sequence (P05364 21-381): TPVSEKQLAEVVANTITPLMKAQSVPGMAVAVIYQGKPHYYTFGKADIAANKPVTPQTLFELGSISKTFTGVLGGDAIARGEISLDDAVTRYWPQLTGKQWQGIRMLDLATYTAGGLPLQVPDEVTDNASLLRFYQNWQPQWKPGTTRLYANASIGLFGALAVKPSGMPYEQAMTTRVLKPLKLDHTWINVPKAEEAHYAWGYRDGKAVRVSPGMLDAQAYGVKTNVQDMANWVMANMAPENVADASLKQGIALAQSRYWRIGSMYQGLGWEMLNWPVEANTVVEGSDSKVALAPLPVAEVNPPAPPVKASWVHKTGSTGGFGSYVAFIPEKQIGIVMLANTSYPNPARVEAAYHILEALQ
Outline: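 Compounds are mixed with purified, untagged recombinant β-lactamase and held 15 min at 37 °C. Substrate is then added. Absorbance is followed immediately, and percent inhibition per concentration gives the IC50.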

[4] = system: E. cloacae expressing the Class C P99; experiment: Broth microdilution MIC assay with ceftazidime, E. cloacae P99; assay type: cell-based; conditions: Fixed CAZ (ceftazidime) 4 μg/mL; E. cl. 144200 p99 AmpC
Outline: as §1

[5] = system: E. coli expressing the Class A Extended Spectrum Beta-Lactamase (ESBL) CTX-M-15; experiment: Broth microdilution MIC assay with ceftazidime, E. coli CTX-M-15; assay type: cell-based; conditions: Fixed CAZ (ceftazidime) 4 μg/mL; E. coli ESBL4 CTX-M-15
Outline: as §1

SHV-5 = biological target: T4, SHV-5 (Klebsiella pneumoniae, UniProt P0A3M1); experiment: β-lactamase enzyme inhibition assay, SHV-5 (cefotaxime substrate); assay type: biochemical
T4 construct: made in house; host or cells: E. coli BL21(DE3)
T4 sequence (P0A3M1 22-286): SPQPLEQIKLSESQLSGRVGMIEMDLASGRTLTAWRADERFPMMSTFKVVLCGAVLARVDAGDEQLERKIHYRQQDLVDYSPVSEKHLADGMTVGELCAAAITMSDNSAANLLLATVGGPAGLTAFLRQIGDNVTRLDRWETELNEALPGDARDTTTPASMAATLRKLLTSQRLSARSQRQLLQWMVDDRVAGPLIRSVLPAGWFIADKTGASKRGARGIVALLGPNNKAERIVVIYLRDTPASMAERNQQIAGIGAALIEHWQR
Outline: as §2

[6] = system: K. pneumoniae expressing the class A carbapenemase KPC-2 and the class B carbapenemase VIM-4; experiment: Broth microdilution MIC assay with meropenem, K. pneumoniae KPC-2 and VIM-4; assay type: cell-based; conditions: Fixed Mero (meropenem) 4 μg/mL; K. p. A-1797 KPC-2 VIM-4
Outline: as §1

SMILES | MIC (μg/mL) of Exemplary Compounds in presence of fixed β-lactams: K. p. 156319 KPC-3 [1] | IC50 (OXA-48) [nM] | MIC (μg/mL) of Exemplary Compounds in presence of fixed β-lactams: K. p. 11978 OXA-48 [2] | IC50 (VIM-2) [nM] | IC50 (KPC-2) [nM] | MIC (μg/mL) of Exemplary Compounds in presence of fixed β-lactams: P. aerug. 2775 VIM-2 [3] | IC50 (AmpC) [nM] | MIC (μg/mL) of Exemplary Compounds in presence of fixed β-lactams: E. cl. 144200 p99 AmpC [4] | MIC (μg/mL) of Exemplary Compounds in presence of fixed β-lactams: E. coli ESBL4 CTX-M-15 [5] | IC50 (SHV-5) [nM] | MIC (μg/mL) of Exemplary Compounds in presence of fixed β-lactams: K. p. A-1797 KPC-2 VIM-4 [6]
NCc1nnn(CC(=O)N[C@H]2Cc3cccc(C(=O)O)c3OB2O)c1Cl [Example 107, (R)-3-(2-(4-(aminomethyl)-5-chloro-1H-1,2,3-triazol-1-yl)acetamido)-2-hydroxy-3,4-dihydro-2H-benzo[e][1,2]oxaborinine-8-carboxylic acid] | C (C represents an MIC of <1 μg/mL) | < 100 | B (B represents an MIC between 1 and 16 μg/mL inclusive) | < 100 | < 100 | C (C represents an MIC of <1 μg/mL) | < 100 | B (B represents an MIC between 1 and 16 μg/mL inclusive) | C (C represents an MIC of <1 μg/mL) | 100 to 1000 | C (C represents an MIC of <1 μg/mL)
O=C(Cn1nnc(CO)c1CO)N[C@H]1Cc2cccc(C(=O)O)c2OB1O [Example 8, (R)-3-(2-(4,5-bis(hydroxymethyl)-1H-1,2,3-triazol-1-yl)acetamido)-2-hydroxy-3,4-dihydro-2H-benzo[e][1,2]oxaborinine-8-carboxylic acid] | B (B represents an MIC between 1 and 16 μg/mL inclusive) | 100 to 1000 | B (B represents an MIC between 1 and 16 μg/mL inclusive) | 1000 to 10000 | 100 to 1000 | B (B represents an MIC between 1 and 16 μg/mL inclusive) | 1000 to 10000 | C (C represents an MIC of <1 μg/mL) | C (C represents an MIC of <1 μg/mL) | < 100 | B (B represents an MIC between 1 and 16 μg/mL inclusive)
O=C(Cc1nnnn1CCF)N[C@H]1Cc2cccc(C(=O)O)c2OB1O [Example 101, (R)-3-(2-(1-(2-fluoroethyl)-1H-tetrazol-5-yl)acetamido)-2-hydroxy-3,4-dihydro-2H-benzo[e][1,2]oxaborinine-8-carboxylic acid] | B (B represents an MIC between 1 and 16 μg/mL inclusive) | < 100 | C (C represents an MIC of <1 μg/mL) | 100 to 1000 | < 100 | C (C represents an MIC of <1 μg/mL) | < 100 | C (C represents an MIC of <1 μg/mL) | C (C represents an MIC of <1 μg/mL) | < 100 | B (B represents an MIC between 1 and 16 μg/mL inclusive)
Nc1cc(-c2cn(CC(=O)N[C@H]3Cc4cccc(C(=O)O)c4OB3O)nn2)ccn1 [Example 62, (R)-3-(2-(4-(2-aminopyridin-4-yl)-1H-1,2,3-triazol-1-yl)acetamido)-2-hydroxy-3,4-dihydro-2H-benzo[e][1,2]oxaborinine-8-carboxylic acid] | C (C represents an MIC of <1 μg/mL) | < 100 | B (B represents an MIC between 1 and 16 μg/mL inclusive) | 100 to 1000 | < 100 | B (B represents an MIC between 1 and 16 μg/mL inclusive) | < 100 | C (C represents an MIC of <1 μg/mL) | C (C represents an MIC of <1 μg/mL) | < 100 | A (A represents an MIC>16 μg/mL)
NCCCn1nnnc1CC(=O)N[C@H]1Cc2cccc(C(=O)O)c2OB1O [Example 50, (R)-3-(2-(1-(3-aminopropyl)-1H-tetrazol-5-yl)acetamido)-2-hydroxy-3,4-dihydro-2H-benzo[e][1,2]oxaborinine-8-carboxylic acid] | C (C represents an MIC of <1 μg/mL) | 1000 to 10000 | B (B represents an MIC between 1 and 16 μg/mL inclusive) | < 100 | < 100 | C (C represents an MIC of <1 μg/mL) | < 100 | C (C represents an MIC of <1 μg/mL) | C (C represents an MIC of <1 μg/mL) | < 100 | C (C represents an MIC of <1 μg/mL)
N=C(N)NCC(O)Cc1cn(CC(=O)N[C@H]2Cc3cccc(C(=O)O)c3OB2O)nn1 (stereo partly drawn) [Example 93, (3R)-3-(2-(4-(3-guanidino-2-hydroxypropyl)-1H-1,2,3-triazol-1-yl)acetamido)-2-hydroxy-3,4-dihydro-2H-benzo[e][1,2]oxaborinine-8-carboxylic acid] | B (B represents an MIC between 1 and 16 μg/mL inclusive) | 1000 to 10000 | B (B represents an MIC between 1 and 16 μg/mL inclusive) | 100 to 1000 | < 100 | C (C represents an MIC of <1 μg/mL) | < 100 | C (C represents an MIC of <1 μg/mL) | C (C represents an MIC of <1 μg/mL) | < 100 | B (B represents an MIC between 1 and 16 μg/mL inclusive)
CC(C)NCCn1nnnc1CC(=O)N[C@H]1Cc2cccc(C(=O)O)c2OB1O [Example 52, (R)-2-hydroxy-3-(2-(1-(2-(isopropylamino)ethyl)-1H-tetrazol-5-yl)acetamido)-3,4-dihydro-2H-benzo[e][1,2]oxaborinine-8-carboxylic acid] | C (C represents an MIC of <1 μg/mL) | 1000 to 10000 | B (B represents an MIC between 1 and 16 μg/mL inclusive) | < 100 | < 100 | C (C represents an MIC of <1 μg/mL) | < 100 | C (C represents an MIC of <1 μg/mL) | C (C represents an MIC of <1 μg/mL) | < 100 | B (B represents an MIC between 1 and 16 μg/mL inclusive)
NCCCNC(=O)c1cn(CC(=O)N[C@H]2Cc3cccc(C(=O)O)c3OB2O)nn1 [Example 65, (R)-3-(2-(4-((3-aminopropyl)carbamoyl)-1H-1,2,3-triazol-1-yl)acetamido)-2-hydroxy-3,4-dihydro-2H-benzo[e][1,2]oxaborinine-8-carboxylic acid] | C (C represents an MIC of <1 μg/mL) | 100 to 1000 | B (B represents an MIC between 1 and 16 μg/mL inclusive) | < 100 | < 100 | B (B represents an MIC between 1 and 16 μg/mL inclusive) | < 100 | C (C represents an MIC of <1 μg/mL) | C (C represents an MIC of <1 μg/mL) | < 100 | B (B represents an MIC between 1 and 16 μg/mL inclusive)
